Values quoted from earlier work as cited in patent publication US20080038350A1, “LOW-DOSAGE PERORAL MEDICATION FOR CONTRACEPTION CONTAINING CRYSTALLINE DIENOGEST AND ETHINYL ESTRADIOL” (priority 2006, published 2008).

Columns and labels:
ovulation inhibition = conditions: micronized, average particle size of about 3 μm
[1] = single dosage

Compound | optimum dosage for reliable ovulation inhibition (ovulation inhibition) [mg] | plasma level, average particle size 3.7 μm versus powder of 22 μm [1]
C[C@]12CCC3=C4CCC(=O)C=C4CC[C@H]3[C@@H]1CC[C@@]2(O)CC#N [dienogest, 17α-cyanomethyl-17β-hydroxyestra-4,9-dien-3-one] | 2 | –
C[C@H]1O[C@@H](O[C@H]2[C@@H](O)C[C@H](O[C@H]3[C@@H](O)C[C@H](O[C@H]4CC[C@@]5(C)[C@H](CC[C@@H]6[C@@H]5C[C@@H](O)[C@]5(C)[C@@H](C7=CC(=O)OC7)CC[C@]65O)C4)O[C@@H]3C)O[C@@H]2C)C[C@H](O)[C@@H]1O [digoxin] | – | nearly twice as high
